# Assay results published in US9453837B2, “Grafted dinuclear metal complexes, and use thereof as cellular microparticle sensors” (CENTRE NATIONAL DE LA RECHERCHE SCIENTIFIQUE (CNRS), priority 2011, dated 2016).
# Tested on: microparticles derived from the activation of the cell culture of HMEC1 human microvascular endothelial cells by TNF-α
# Assay: Colorimetric assay of cellular microparticles by immobilisation of the complex on a microtiter plate (sensitivity study)
# Assay type: binding
# Conditions: complex immobilised on polyglutaraldehyde-activated PVC plate; anti-CD105 antibody, peroxidase secondary antibody, ABTS; FIG. 1
# Method: a) Reagents: • Glutaraldehyde 25% • Ethanolamine 16.5 M • Bicarbonate buffer (Na Bic), at pH 9.5, 1 M, to be made only by titration of a solution of NaH2CO3 (pH 8.3) with a solution of Na2CO3 at pH 11, 6. • HEPES buffer, 10 mM pH 7.4; 0.15 M NaCl • (hBPMP/Zinc)-C6H2, 150 μM
# b) Protocols: • Polymerisation of glutaraldehyde: • 50 ml of a solution of 2.5% glutaraldehyde is prepared in 0.1 M Na Bic, then the mixture is placed in a sealed vial at 37° C. for 2 hours. • Adsorption of polyglutaraldehyde on the surface of polyvinyl chloride: • A microtiter plate with 96 wells is used. • 100 μL of 2.5% glutaraldehyde is deposited in each well and left for 2 hours at 22° C. The polyglutaraldehyde is removed and the surface is rinsed 3 times with water. • Immobilisation of the complex [(Zn2)(BPMP-C6H2)(μ-OH)].(ClO4)2 • The complex in 0.1 M HEPES, pH 8.2 is immobilised on the surface of the polyvinyl chloride plate for 24 hours at +22° C.: • The free aldehyde groups are saturated with 0.3 M ethanolamine by incubating the surface with this solution for 2 hours at 22° C., then the ethanolamine is eliminated by washing with water and then washing 3 times in 10 mM HEPES at pH 7.4, 0.15 M NaCl. […]
# The reading is performed by means of a spectrophotometer. […]
substance,measurement,value
"[μ-[6-amino-N-(3,5-bis((bis(2-pyridylmethyl)amino)methyl)-4-hydroxybenzyl)hexanamide]]-μ-hydroxo, dizinc, diperchlorate [Example 4]",signal (initial velocity Vi of peroxidase substrate degradation) based on the quantity of microparticles,specific dose-response
